Where a SMILES comes first, the peptide text is derived from it. [ ]: non-standard residue; d: D form. The star is where a group is joined. Cha = N[C@@H](CC1CCCCC1)C(=O)O; Nicotinoyl = O=C(c1cccnc1)*; 3Abz = Nc1cccc(C(=O)O)c1; 4Abz = Nc1ccc(C(=O)O)cc1; βAla = NCCC(=O)O
How the values were obtained:
[1] = target: T1, Proteinase-activated receptor 1 (Homo sapiens, UniProt P25116); test: Inhibition of [3H]S-(p-F-Phe)-Har-L-Har-KY-NH2 binding to thrombin receptor (PAR-1) on membranes from CHRF cells; type: cell membranes
T1 sequence (P25116 whole entry): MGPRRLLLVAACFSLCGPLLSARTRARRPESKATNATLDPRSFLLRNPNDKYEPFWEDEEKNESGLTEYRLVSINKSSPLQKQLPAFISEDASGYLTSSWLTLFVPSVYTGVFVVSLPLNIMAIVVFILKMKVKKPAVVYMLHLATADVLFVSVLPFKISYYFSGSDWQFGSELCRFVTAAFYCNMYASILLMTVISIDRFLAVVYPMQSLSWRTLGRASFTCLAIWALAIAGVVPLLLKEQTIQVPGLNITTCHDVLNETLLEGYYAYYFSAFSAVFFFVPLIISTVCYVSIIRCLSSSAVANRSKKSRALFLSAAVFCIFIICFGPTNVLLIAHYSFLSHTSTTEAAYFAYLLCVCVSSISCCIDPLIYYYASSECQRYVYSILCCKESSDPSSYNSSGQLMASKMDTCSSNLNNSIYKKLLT

[2] = target: T2, Proteinase-activated receptor 1 (Homo sapiens) (UniProt P25116); test: Evaluated for activation of human platelet aggregation (gel-filtered platelets) induced by alpha thrombin at 50 uM; type: functional
T2 sequence (whole entry): T1 sequence (P25116 whole entry)

[3] = target: T1, Proteinase-activated receptor 1; test: Inhibition of [3H]S-(p-F-Phe)-Har-L-Har-KY-NH2 binding to Thrombin receptor 1 (PAR-1) on membranes from CHRF cells; type: cell membranes
Homo sapiens = organism: Homo sapiens; test: Antagonist activity by using human gel-filtered platelet aggregation; type: functional

Compound	IC50 [1] [µM]	percent activation of platelet aggregation [2] [%]	also measured
N=C(N)NCCC[C@H](NC(=O)[C@H](CC1CCCCC1)NC(=O)c1ccoc1)C(=O)N[C@@H](Cc1ccccc1)C(N)=O	25	38	–
N=C(N)NCCC[C@H](NC(=O)[C@H](CC1CCCCC1)NC(=O)c1cccnc1N)C(=O)N[C@@H](Cc1ccccc1)C(N)=O	2.3	–	–
NCCCC[C@H](NC(=O)[C@H](CC1CCCCC1)NC(=O)c1n[nH]c(N)n1)C(=O)N[C@@H](Cc1ccccc1)C(N)=O	5.4	–	–
N=C(N)NCCC[C@H](NC(=O)[C@H](CC1CCCCC1)NC(=O)c1n[nH]c(NC(=O)/C=C/c2ccc(F)cc2)n1)C(=O)N[C@@H](Cc1ccccc1)C(N)=O	–	–	IC50 [3]: 1.2 µM
N=C(N)NCCC[C@H](NC(=O)[C@H](CC1CCCCC1)NC(=O)c1n[nH]c(NC(=O)/C=C/c2ccccc2[N+](=O)[O-])n1)C(=O)N[C@@H](Cc1ccccc1)C(N)=O	1.6	–	–
N=C(N)NCCC[C@H](NC(=O)[C@H](CC1CCCCC1)NC(=O)c1cc2ccccc2[nH]1)C(=O)N[C@@H](Cc1ccccc1)C(N)=O	56	21	–
N=C(N)NCCC[C@H](NC(=O)[C@H](CC1CCCCC1)NC(=O)CCN)C(=O)N[C@@H](Cc1ccccc1)C(N)=O (H-[βAla][Cha]RF-NH2)	9	–	–
N=C(N)NCCC[C@H](NC(=O)[C@H](CC1CCCCC1)NC(=O)c1cccnc1Cl)C(=O)N[C@@H](Cc1ccccc1)C(N)=O	7.6	< 20	–
N=C(N)NCCC[C@H](NC(=O)[C@H](CC1CCCCC1)NC(=O)c1cnc2ccccc2n1)C(=O)N[C@@H](Cc1ccccc1)C(N)=O	3.1	–	–
C[C@H](NC(=O)c1n[nH]c(N)n1)C(=O)N[C@@H](CCCN=C(N)N)C(=O)N[C@@H](Cc1ccccc1)C(N)=O	46	< 20	–
N=C(N)NCCC[C@H](NC(=O)[C@H](CC1CCCCC1)NC(=O)c1cccnc1)C(=O)N[C@@H](Cc1ccccc1)C(N)=O (Nicotinoyl-[Cha]-Arg-Phe-NH2)	1.3	–	–
N=C(N)NCCC[C@H](NC(=O)[C@H](CC1CCCCC1)NC(=O)c1n[nH]c(NC(=O)/C=C/c2ccc(C(F)(F)F)cc2)n1)C(=O)N[C@@H](Cc1ccccc1)C(N)=O	–	–	IC50 [3]: 30 µM
N=C(N)NCCC[C@H](NC(=O)[C@H](CC1CCCCC1)NC(=O)c1nnc(N)[nH]1)C(=O)N[C@H](C(N)=O)c1ccccc1	7	–	–
N=C(N)NCCC[C@H](NC(=O)[C@H](CC1CCCCC1)NC(=O)/C=C/c1cccnc1)C(=O)N[C@@H](Cc1ccccc1)C(N)=O	5.5	–	–
N=C(N)NCCC[C@H](NC(=O)[C@H](CC1CCCCC1)NC(=O)c1nnc(N)[nH]1)C(=O)N[C@@H](Cc1cccs1)C(N)=O	4	–	–
N=C(N)NCCC[C@H](NC(=O)[C@H](Cc1ccccc1)NC(=O)c1nnc(N)[nH]1)C(=O)N[C@@H](Cc1ccccc1)C(N)=O	2	–	–
NCCC(=O)N[C@@H](CC1CCCCC1)C(=O)N[C@@H](CCCN=C(N)N)C(=O)N[C@@H](Cc1ccccc1)C(N)=O (H-[βAla][Cha]RF-NH2)	–	30	–
N=C(N)NCCC[C@H](NC(=O)[C@H](CC1CCCCC1)NC(=O)c1n[nH]c(NC(=O)/C=C/c2cccs2)n1)C(=O)N[C@@H](Cc1ccccc1)C(N)=O	4.4	–	–
N=C(N)NCCC[C@H](NC(=O)[C@H](CC1CCCCC1)NC(=O)c1ccc2c(c1)-c1ccccc1-2)C(=O)N[C@@H](Cc1ccccc1)C(N)=O	2.4	–	–
N=C(N)NCCC[C@H](NC(=O)[C@H](CC1CCCCC1)NC(=O)c1n[nH]c(N)n1)C(=O)N[C@@H](Cc1ccccc1)C(N)=O	1.9	–	–
N=C(N)NCCC[C@H](NC(=O)[C@H](CC1CCCCC1)NC(=O)c1cc(=O)c2ccccc2o1)C(=O)N[C@@H](Cc1ccccc1)C(N)=O	1.6	–	–
COc1ccc(/C=C/C(=O)Nc2n[nH]c(C(=O)N[C@@H](CC3CCCCC3)C(=O)N[C@@H](CCCN=C(N)N)C(=O)N[C@@H](Cc3ccccc3)C(N)=O)n2)cc1	–	–	IC50 [3]: 4 µM
N=C(N)NCCC[C@H](NC(=O)[C@H](CC1CCCCC1)NC(=O)C1C=CC=NC1=O)C(=O)N[C@@H](Cc1ccccc1)C(N)=O (stereo partly specified)	16	26	–
N=C(N)NCCC[C@H](NC(=O)[C@H](Cc1ccccc1)NC(=O)c1ccc2[nH]cnc2c1)C(=O)N[C@@H](Cc1ccccc1)C(N)=O	4	–	–

Compound	IC50 [1] [µM]	percent activation of platelet aggregation [2] [%]	also measured
N=C(N)NCCC[C@H](NC(=O)[C@H](CC1CCCCC1)NC(=O)C1=COc2ccccc2O1)C(=O)N[C@@H](Cc1ccccc1)C(N)=O	16	< 20	–
N=C(N)NCCC[C@H](NC(=O)[C@H](CC1CCCCC1)NC(=O)c1ccccn1)C(=O)N[C@@H](Cc1ccccc1)C(N)=O	4.4	–	–
N=C(N)NCCC[C@H](NC(=O)[C@H](CC1CCCCC1)NC(=O)c1ccncc1)C(=O)N[C@@H](Cc1ccccc1)C(N)=O	7	26	–
N=C(N)NCCC[C@H](NC(=O)[C@H](CC1CCCCC1)NC(=O)c1csnn1)C(=O)N[C@@H](Cc1ccccc1)C(N)=O	9.4	–	–
N=C(N)NCCC[C@H](NC(=O)[C@H](CC1CCCCC1)NC(=O)c1n[nH]c(N)n1)C(=O)N[C@@H](Cc1c[nH]cn1)C(N)=O	27	< 20	–
N=C(N)NCCC[C@H](NC(=O)[C@H](CC1CCCCC1)NC(=O)c1cnc(Cl)c(Cl)c1)C(=O)N[C@@H](Cc1ccccc1)C(N)=O	–	32	IC50 [3]: 2.6 µM
C[C@H](NC(=O)[C@H](CC1CCCCC1)NC(=O)c1n[nH]c(N)n1)C(=O)N[C@@H](Cc1ccccc1)C(N)=O	18	< 20	–
N=C(N)NCCC[C@H](NC(=O)[C@H](CC1CCCCC1)NC(=O)c1n[nH]c(NC(=O)/C(F)=C/c2ccccc2)n1)C(=O)N[C@@H](Cc1ccccc1)C(N)=O	–	–	IC50 (Homo sapiens): 28 µM
N=C(N)NCCC[C@H](NC(=O)[C@H](CC1CCCCC1)NC(=O)c1n[nH]c(NC(=O)/C=C/c2cccc(Cl)c2)n1)C(=O)N[C@@H](Cc1ccccc1)C(N)=O	–	–	IC50 [3]: 15 µM
N=C(N)NCCC[C@H](NC(=O)[C@H](CC1CCCCC1)NC(=O)c1ccc(Cl)nc1)C(=O)N[C@@H](Cc1ccccc1)C(N)=O	2.4	–	–
N=C(N)NCCC[C@H](NC(=O)[C@H](CC1CCCCC1)NC(=O)c1n[nH]c(NC(=O)/C=C/c2c[nH]c3ccccc23)n1)C(=O)N[C@@H](Cc1ccccc1)C(N)=O	100	–	–
N=C(N)NCCC[C@H](NC(=O)[C@H](CC1CCCCC1)NC(=O)c1cc2ccccc2s1)C(=O)N[C@@H](Cc1ccccc1)C(N)=O	2.3	–	–
N=C(N)NCCC[C@H](NC(=O)[C@H](CC1CCCCC1)NC(=O)c1ccc[nH]1)C(=O)N[C@@H](Cc1ccccc1)C(N)=O	10	55	–
N=C(N)NCCC[C@H](NC(=O)[C@H](CC1CCCCC1)NC(=O)/C=C/c1ccccc1)C(=O)N[C@@H](Cc1ccccc1)C(N)=O	5	20	–
N=C(N)NCCC[C@H](NC(=O)[C@H](CC1CCCCC1)NC(=O)c1ccc(N)nc1)C(=O)N[C@@H](Cc1ccccc1)C(N)=O	2	–	–
N=C(N)NCCC[C@H](NC(=O)[C@H](CC1CCCCC1)NC(=O)c1nccnc1N)C(=O)N[C@@H](Cc1ccccc1)C(N)=O	8.5	–	–
N=C(N)NCCC[C@H](NC(=O)[C@H](CC1CCCCC1)NC(=O)c1n[nH]c(NC(=O)/C=C/c2cccc([N+](=O)[O-])c2)n1)C(=O)N[C@@H](Cc1ccccc1)C(N)=O	–	–	IC50 [3]: 8.5 µM
N=C(N)NCCC[C@H](NC(=O)[C@H](CC1CCCCC1)NC(=O)c1cccc(N)c1)C(=O)N[C@@H](Cc1ccccc1)C(N)=O (H-[3Abz][Cha]RF-NH2)	2	–	–
N=C(N)NCCC[C@H](NC(=O)[C@H](CC1CCCCC1)NC(=O)c1ccc(-c2ccccc2)cc1)C(=O)N[C@@H](Cc1ccccc1)C(N)=O	13	56	–
N=C(N)NCCC[C@H](NC(=O)[C@H](CC1CCCCC1)NC(=O)c1n[nH]c(NC(=O)/C=C/c2ccc(Cl)cc2)n1)C(=O)N[C@@H](Cc1ccccc1)C(N)=O	–	–	IC50 [3]: 1.4 µM
N=C(N)NCCC[C@H](NC(=O)[C@H](CC1CCCCC1)NC(=O)c1cc2ccccc2o1)C(=O)N[C@@H](Cc1ccccc1)C(N)=O	–	–	IC50 [3]: 3 µM
CC(C)C[C@H](NC(=O)[C@H](CC(C)C)NC(=O)[C@H](Cc1ccccc1)NC(=O)[C@@H](N)CO)C(=O)N[C@@H](CCCN=C(N)N)C(=O)N[C@@H](CC(N)=O)C(N)=O	0.55	–	–
N=C(N)NCCC[C@H](NC(=O)[C@H](CC1CCCCC1)NC(=O)c1ccc(N)cc1)C(=O)N[C@@H](Cc1ccccc1)C(N)=O (H-[4Abz][Cha]RF-NH2)	2.9	40	–

— ChEMBL document CHEMBL1131716, “Heterocycle-peptide hybrid compounds. Aminotriazole-containing agonists of the thrombin receptor (PAR-1)” (Bioorg Med Chem Lett, 1999)
